Measurements as given in publication PMC5218480 (PLoS ONE, 2017).

Test system: MV-4-11 cells
Assay: Gene expression microarray analysis (Affymetrix PrimeView) and GSEA
Type: cell-based, human
Set-up: RFU PODN (11730768_x_at) / Fold change /veh PODN (11730768_x_at) / RFU LINC00158 (11744669_a_at) / Fold change /veh LINC00158 (11744669_a_at) / RFU DUSP10 (11751237_a_at) / Fold change /veh DUSP10 (11751237_a_at) / RFU ID3 (11757404_x_at) / Fold change /veh ID3 (11757404_x_at) / RFU PLEKHG5 (11737974_s_at) / Fold change /veh PLEKHG5 (11737974_s_at) / RFU LRRC4B (11730491_at) / Fold change /veh LRRC4B (11730491_at) / RFU GIMAP4 (11747438_a_at) / Fold change /veh GIMAP4 (11747438_a_at) / RFU KRT8 (11758183_x_at) / Fold change /veh KRT8 (11758183_x_at) / RFU CNN1 (11734310_a_at) / Fold change /veh CNN1 (11734310_a_at) / RFU VPS37D (11726825_at) / Fold change /veh VPS37D (11726825_at) / RFU C10orf10 (11716522_x_at) / Fold change /veh C10orf10 (11716522_x_at) / RFU KIR2DL2 /// KIR2DL4 /// KIR2DL5A /// KIR2DL5B /// KIR2DS1 /// KIR2DS2 /// KIR2DS3 /// KIR2DS4 /// KIR3DL3 /// KIR3DL3 /// KIR3DS1 (11738374_at) / Fold change /veh KIR2DL2 /// KIR2DL4 /// KIR2DL5A /// KIR2DL5B /// KIR2DS1 /// KIR2DS2 /// KIR2DS3 /// KIR2DS4 /// KIR3DL3 /// KIR3DL3 /// KIR3DS1 (11738374_at) / RFU C1QL1 (11718748_at) / Fold change /veh C1QL1 (11718748_at) / RFU TMPRSS4 (11747572_a_at) / Fold change /veh TMPRSS4 (11747572_a_at) / RFU HAMP (11756126_x_at) / Fold change /veh HAMP (11756126_x_at) / RFU RNFT2 (11725882_a_at) / Fold change /veh RNFT2 (11725882_a_at) / RFU NR4A2 (11747474_a_at) / Fold change /veh NR4A2 (11747474_a_at) / RFU ABCC12 (11746883_a_at) / Fold change /veh ABCC12 (11746883_a_at) / RFU TMEM136 (11760407_x_at) / Fold change /veh TMEM136 (11760407_x_at) / RFU CLDN22 /// WWC2 (11732394_at) / Fold change /veh CLDN22 /// WWC2 (11732394_at) / RFU HLA-DPB1 (11760878_x_at) / Fold change /veh HLA-DPB1 (11760878_x_at) / RFU SPINT1 (11716480_a_at) / Fold change /veh SPINT1 (11716480_a_at) / RFU GAP43 (11754022_s_at) / Fold change /veh GAP43 (11754022_s_at) / RFU A4GNT (11735810_at) / Fold change /veh A4GNT (11735810_at) / RFU PRB3 (11715151_x_at) / Fold change /veh PRB3 (11715151_x_at) / RFU TUBB4B (11761932_at) / Fold change /veh TUBB4B (11761932_at) / RFU CAPN14 (11732068_a_at) / Fold change /veh CAPN14 (11732068_a_at) / RFU TMCC2 (11721928_a_at) / Fold change /veh TMCC2 (11721928_a_at) / RFU IRGQ (11745062_a_at) / Fold change /veh IRGQ (11745062_a_at) / RFU FAM174B (11720279_a_at) / Fold change /veh FAM174B (11720279_a_at) / RFU TMPRSS4 (11748680_a_at) / Fold change /veh TMPRSS4 (11748680_a_at) / RFU FAM212B (11763350_a_at) / Fold change /veh FAM212B (11763350_a_at) / RFU PLEKHG5 (11743358_a_at) / Fold change /veh PLEKHG5 (11743358_a_at) / RFU ZSCAN30 (11745921_a_at) / Fold change /veh ZSCAN30 (11745921_a_at) / RFU CMKLR1 (11741424_a_at) / Fold change /veh CMKLR1 (11741424_a_at) / RFU LOC101060620 /// MAPK8IP1 (11723275_at) / Fold change /veh LOC101060620 /// MAPK8IP1 (11723275_at) / RFU SPTSSB (11747773_x_at) / Fold change /veh SPTSSB (11747773_x_at) / RFU PRSS12 (11739890_at) / Fold change /veh PRSS12 (11739890_at) / RFU BIN1 (11741810_x_at) / Fold change /veh BIN1 (11741810_x_at) / RFU WNT11 (11732464_a_at) / Fold change /veh WNT11 (11732464_a_at) / RFU C10orf10 (11716521_a_at) / Fold change /veh C10orf10 (11716521_a_at) / RFU C5orf56 (11738089_at) / Fold change /veh C5orf56 (11738089_at) / RFU CYB561 (11721691_x_at) / Fold change /veh CYB561 (11721691_x_at) / RFU ANKRD19P (11752326_a_at) / Fold change /veh ANKRD19P (11752326_a_at) / RFU OR2T12 /// OR2T33 /// OR2T8 (11738714_s_at) / Fold change /veh OR2T12 /// OR2T33 /// OR2T8 (11738714_s_at) / RFU VCAN (11748164_a_at) / Fold change /veh VCAN (11748164_a_at) / RFU JSRP1 (11732532_at) / Fold change /veh JSRP1 (11732532_at) / RFU KRTAP10-11 (11738290_x_at) / Fold change /veh KRTAP10-11 (11738290_x_at) / RFU MYO3A (11730013_a_at) / Fold change /veh MYO3A (11730013_a_at) / RFU EBF3 (11725865_a_at) / Fold change /veh EBF3 (11725865_a_at) / RFU CAMK2N1 (11719241_x_at) / Fold change /veh CAMK2N1 (11719241_x_at) / RFU C5orf56 (11738088_a_at) / Fold change /veh C5orf56 (11738088_a_at) / RFU OLFML3 (11715873_a_at) / Fold change /veh OLFML3 (11715873_a_at) / RFU LOC100653217 /// NTM (11731650_a_at) / Fold change /veh LOC100653217 /// NTM (11731650_a_at) / RFU MAPK11 (11762145_a_at) / Fold change /veh MAPK11 (11762145_a_at) / RFU FIZ1 (11724087_x_at) / Fold change /veh FIZ1 (11724087_x_at) / RFU OASL (11726364_x_at) / Fold change /veh OASL (11726364_x_at) / RFU SOX15 (11748057_x_at) / Fold change /veh SOX15 (11748057_x_at) / RFU CD79A (11719716_a_at) / Fold change /veh CD79A (11719716_a_at) / RFU HIST1H1D (11736915_at) / Fold change /veh HIST1H1D (11736915_at) / RFU CASKIN2 (11723855_a_at) / Fold change /veh CASKIN2 (11723855_a_at) / RFU LOC730098 (11760151_x_at) / Fold change /veh LOC730098 (11760151_x_at) / RFU OR4N2 (11742367_at) / Fold change /veh OR4N2 (11742367_at) / RFU PRRT2 (11749266_a_at) / Fold change /veh PRRT2 (11749266_a_at) / RFU SNX32 (11753110_a_at) / Fold change /veh SNX32 (11753110_a_at) / RFU CDHR5 (11726645_a_at) / Fold change /veh CDHR5 (11726645_a_at) / RFU RCAN1 (11760418_a_at) / Fold change /veh RCAN1 (11760418_a_at) / RFU FAM167A (11723789_a_at) / Fold change /veh FAM167A (11723789_a_at) / RFU FAM26E (11764081_at) / Fold change /veh FAM26E (11764081_at) / RFU ISYNA1 (11749810_s_at) / Fold change /veh ISYNA1 (11749810_s_at) / RFU ACY1 (11761880_at) / Fold change /veh ACY1 (11761880_at) / RFU 11764098_at / Fold change /veh 11764098_at / RFU SAMD14 (11745864_x_at) / Fold change /veh SAMD14 (11745864_x_at) / RFU NPB (11741838_a_at) / Fold change /veh NPB (11741838_a_at) / RFU TMPRSS6 (11731388_a_at) / Fold change /veh TMPRSS6 (11731388_a_at) / RFU KRTAP10-2 (11738614_at) / Fold change /veh KRTAP10-2 (11738614_at) / RFU ARHGAP8 /// PRR5-ARHGAP8 (11727945_x_at) / Fold change /veh ARHGAP8 /// PRR5-ARHGAP8 (11727945_x_at) / RFU KRTAP5-7 /// NADSYN1 (11734609_at) / Fold change /veh KRTAP5-7 /// NADSYN1 (11734609_at) / RFU RASL12 (11751679_a_at) / Fold change /veh RASL12 (11751679_a_at) / RFU CDKN2B (11736163_a_at) / Fold change /veh CDKN2B (11736163_a_at) / RFU PRF1 (11729649_at) / Fold change /veh PRF1 (11729649_at) / RFU, ZNF638 /// ZNF638-IT1 / Fold change vs veh, ZNF638 /// ZNF638-IT1 / RFU, PANK3 / Fold change vs veh, PANK3 / RFU, SH3YL1 / Fold change vs veh, SH3YL1 / RFU, ZEB2 / Fold change vs veh, ZEB2 / RFU, NRIP1 / Fold change vs veh, NRIP1 / RFU, PTTG1IP / Fold change vs veh, PTTG1IP / RFU, CAPN2 / Fold change vs veh, CAPN2 / RFU, MED14 / Fold change vs veh, MED14 / RFU, SNORA58 / Fold change vs veh, SNORA58 / RFU, C1orf63 / Fold change vs veh, C1orf63 / RFU, LRRFIP1 / Fold change vs veh, LRRFIP1 / RFU, NDUFAF7 / Fold change vs veh, NDUFAF7 / RFU, SLC12A2 / Fold change vs veh, SLC12A2 / RFU, IBTK / Fold change vs veh, IBTK / RFU, ESF1 / Fold change vs veh, ESF1 / Fold change vs veh, TMEM50B / RFU, TAOK1 / Fold change vs veh, TAOK1 / RFU, ACBD3 / Fold change vs veh, ACBD3 / RFU, TMA16 / Fold change vs veh, TMA16 / RFU, RWDD3 / Fold change vs veh, RWDD3 / RFU, BCAT1 / Fold change vs veh, BCAT1 / RFU, EDEM3 / Fold change vs veh, EDEM3 / RFU, TMEM33 / Fold change vs veh, TMEM33 / RFU, WDR75 / Fold change vs veh, WDR75 / RFU, AHCTF1 / Fold change vs veh, AHCTF1 / RFU, TFRC / Fold change vs veh, TFRC / RFU, ZDHHC17 / Fold change vs veh, ZDHHC17 / RFU, NOM1 / Fold change vs veh, NOM1 / RFU, ARL8B / Fold change vs veh, ARL8B / RFU, ZBTB11 / Fold change vs veh, ZBTB11 / RFU, TAMM41 / Fold change vs veh, TAMM41 / RFU, KIAA1704 /// LOC100996395 / Fold change vs veh, KIAA1704 /// LOC100996395 / RFU, ING1 / Fold change vs veh, ING1 / RFU, TRMT61B / Fold change vs veh, TRMT61B / RFU, FUBP3 / Fold change vs veh, FUBP3 / RFU, TP53 / Fold change vs veh, TP53 / RFU, TNKS2 / Fold change vs veh, TNKS2 / RFU, ZFP14 / Fold change vs veh, ZFP14 / RFU, ACTR2 / Fold change vs veh, ACTR2 / RFU, PPP3R1 / Fold change vs veh, PPP3R1 / RFU, PIK3R1 / Fold change vs veh, PIK3R1 / RFU, HNRNPA1 / Fold change vs veh, HNRNPA1 / RFU, RNF170 / Fold change vs veh, RNF170 / RFU, ZNF28 / Fold change vs veh, ZNF28 / RFU, RNGTT / Fold change vs veh, RNGTT / RFU, OGT / Fold change vs veh, OGT / RFU, BRD1 / Fold change vs veh, BRD1 / RFU, MARS / Fold change vs veh, MARS / RFU, ZNF655 / Fold change vs veh, ZNF655 / RFU, FAHD1 / Fold change vs veh, FAHD1 / RFU, BDP1 / Fold change vs veh, BDP1 / RFU, LRRCC1 / Fold change vs veh, LRRCC1 / RFU, ARID1A / Fold change vs veh, ARID1A / RFU, ZNF146 / Fold change vs veh, ZNF146 / RFU, ZNF330 / Fold change vs veh, ZNF330 / RFU, GPN3 / Fold change vs veh, GPN3 / RFU, C9orf123 / Fold change vs veh, C9orf123 / RFU, N4BP2L2 / Fold change vs veh, N4BP2L2 / RFU, ARFIP1 / Fold change vs veh, ARFIP1 / RFU, FAM179B / Fold change vs veh, FAM179B / RFU, BCL10 / Fold change vs veh, BCL10 / RFU, UHRF1BP1L / Fold change vs veh, UHRF1BP1L / RFU, BET1 / Fold change vs veh, BET1 / RFU, CNOT2 / Fold change vs veh, CNOT2 / RFU, ZNF268 / Fold change vs veh, ZNF268 / Fold change vs veh, ZNF507 / RFU, DGCR2 / Fold change vs veh, DGCR2 / RFU, WDSUB1 / Fold change vs veh, WDSUB1 / Fold change vs veh, HSP90B1 /// MIR3652 / RFU, ADSS / Fold change vs veh, ADSS / RFU, GK / Fold change vs veh, GK / RFU, ZNF148 / Fold change vs veh, ZNF148 / RFU, TAF9 / Fold change vs veh, TAF9 / RFU, SLC1A5 / Fold change vs veh, SLC1A5 / RFU, SLMO2 / Fold change vs veh, SLMO2 / RFU, ABCC4 / Fold change vs veh, ABCC4 / RFU, LOC101060439 /// RAP1B / Fold change vs veh, LOC101060439 /// RAP1B / RFU, RFX7 / Fold change vs veh, RFX7 / RFU, GTPBP10 / Fold change vs veh, GTPBP10 / RFU, CNEP1R1 / Fold change vs veh, CNEP1R1 / RFU, BIVM-ERCC5 /// ERCC5 / Fold change vs veh, BIVM-ERCC5 /// ERCC5 / RFU, ILF3 / Fold change vs veh, ILF3 / RFU 11762660_at / Fold change /veh 11762660_at / RFU VCAN (11757783_s_at) / Fold change /veh VCAN (11757783_s_at) / RFU DDX43 (11728927_at) / Fold change /veh DDX43 (11728927_at) / RFU KRT8 (11758188_x_at) / Fold change /veh KRT8 (11758188_x_at) / RFU NKD1 (11759106_at) / Fold change /veh NKD1 (11759106_at) / RFU SRD5A1 (11742802_a_at) / Fold change /veh SRD5A1 (11742802_a_at) / RFU TPSAB1 /// TPSB2 (11721975_s_at) / Fold change /veh TPSAB1 /// TPSB2 (11721975_s_at) / RFU GSTM3 (11746129_a_at) / Fold change /veh GSTM3 (11746129_a_at) / RFU IL23R (11737362_x_at) / Fold change /veh IL23R (11737362_x_at) / RFU TMEM51 (11727254_a_at) / Fold change /veh TMEM51 (11727254_a_at) / RFU PIWIL2 (11732686_x_at) / Fold change /veh PIWIL2 (11732686_x_at) / RFU ORM1 (11744905_x_at) / Fold change /veh ORM1 (11744905_x_at) / RFU CCDC152 (11743942_at) / Fold change /veh CCDC152 (11743942_at) / RFU ECM1 (11717891_a_at) / Fold change /veh ECM1 (11717891_a_at) / RFU IL23R (11748794_a_at) / Fold change /veh IL23R (11748794_a_at) / RFU TNFAIP8L3 (11732012_x_at) / Fold change /veh TNFAIP8L3 (11732012_x_at) / RFU MBOAT4 (11741988_at) / Fold change /veh MBOAT4 (11741988_at) / RFU 11764193_at / Fold change /veh 11764193_at / RFU TMEM53 (11763286_at) / Fold change /veh TMEM53 (11763286_at) / RFU MAGEB2 (11727129_at) / Fold change /veh MAGEB2 (11727129_at) / RFU TMEM200A (11744735_a_at) / Fold change /veh TMEM200A (11744735_a_at) / RFU CCDC152 (11751479_a_at) / Fold change /veh CCDC152 (11751479_a_at) / RFU FAM211A (11726209_a_at) / Fold change /veh FAM211A (11726209_a_at) / RFU RGS16 (11746705_a_at) / Fold change /veh RGS16 (11746705_a_at) / RFU VCAN (11755009_s_at) / Fold change /veh VCAN (11755009_s_at) / RFU RHOB (11743442_s_at) / Fold change /veh RHOB (11743442_s_at) / RFU RGS16 (11720943_a_at) / Fold change /veh RGS16 (11720943_a_at) / RFU RGS16 (11720944_at) / Fold change /veh RGS16 (11720944_at) / RFU, VPS4B / Fold change vs veh, VPS4B / RFU, CREB1 / Fold change vs veh, CREB1 / RFU, DNAJC13 / Fold change vs veh, DNAJC13 / RFU, GNAQ / Fold change vs veh, GNAQ / RFU, CDK5R1 / Fold change vs veh, CDK5R1 / RFU, ZRANB3 / Fold change vs veh, ZRANB3 / RFU, CUL4A / Fold change vs veh, CUL4A / RFU, CCNY / Fold change vs veh, CCNY / RFU, UFL1 / Fold change vs veh, UFL1 / RFU, COG3 / Fold change vs veh, COG3 / RFU, DIAPH2 / Fold change vs veh, DIAPH2 / RFU, SKA2 / Fold change vs veh, SKA2 / RFU, AFF3 / Fold change vs veh, AFF3 / RFU, LMF1 / Fold change vs veh, LMF1 / RFU, IPO11 / Fold change vs veh, IPO11 / RFU, DFFB / Fold change vs veh, DFFB / RFU, FOXP1 / Fold change vs veh, FOXP1 / RFU, CARD8 / Fold change vs veh, CARD8 / RFU, STRN3 / Fold change vs veh, STRN3 / RFU, ADK / Fold change vs veh, ADK / RFU, RASSF2 / Fold change vs veh, RASSF2 / RFU, WIPF1 / Fold change vs veh, WIPF1 / RFU, LARP1B / Fold change vs veh, LARP1B / RFU, RASA1 / Fold change vs veh, RASA1 / RFU, RB1 / Fold change vs veh, RB1 / RFU, PPFIA1 / Fold change vs veh, PPFIA1 / RFU, MAT2A / Fold change vs veh, MAT2A / RFU, CCT5 / Fold change vs veh, CCT5 / RFU, WDR92 / Fold change vs veh, WDR92 / RFU, CUX1 / Fold change vs veh, CUX1 / RFU, TTC7A / Fold change vs veh, TTC7A / RFU, TMEM135 / Fold change vs veh, TMEM135 / RFU, DEPTOR / Fold change vs veh, DEPTOR / RFU, CPM / Fold change vs veh, CPM / RFU, DNAJB6 / Fold change vs veh, DNAJB6 / RFU, CACNA2D3 / Fold change vs veh, CACNA2D3 / RFU, DTX4 / Fold change vs veh, DTX4 / RFU, TFCP2 / Fold change vs veh, TFCP2 / RFU, GMCL1 /// GMCL1P1 / Fold change vs veh, GMCL1 /// GMCL1P1 / RFU, AEBP2 / Fold change vs veh, AEBP2 / RFU, SNHG1 /// SNORD22 /// SNORD25 /// SNORD26 /// SNORD27 /// SNORD28 /// SNORD29 /// SNORD31 / Fold change vs veh, SNHG1 /// SNORD22 /// SNORD25 /// SNORD26 /// SNORD27 /// SNORD28 /// SNORD29 /// SNORD31 / Fold change (Aza/veh), C12orf56 (ProbeSet 11735607_a_at) / Fold change (ACY-1035/veh), C12orf56 (ProbeSet 11735607_a_at) / Fold change (Aza/veh), FGFR1OP (ProbeSet 11751329_s_at) / Fold change (ACY-1035/veh), FGFR1OP (ProbeSet 11751329_s_at) / Fold change (Aza/veh), VPS36 (ProbeSet 11739960_a_at) / Fold change (ACY-1035/veh), VPS36 (ProbeSet 11739960_a_at) / RFU SYPL1 (11715823_x_at) / Fold change /veh SYPL1 (11715823_x_at) / RFU IGFBP7 (11715501_s_at) / Fold change /veh IGFBP7 (11715501_s_at) / RFU REEP3 (11722064_at) / Fold change /veh REEP3 (11722064_at) / RFU IGLL1 (11728026_x_at) / Fold change /veh IGLL1 (11728026_x_at): dose or concentration left out as unconfirmed
Conditions: MV-4-11 cells, 48 hours

Structure (SMILES): Nc1ncn([C@@H]2O[C@H](CO)[C@@H](O)[C@H]2O)c(=O)n1 [azacitidine]
- Fold change /veh KRT8 (11758188_x_at): 1.26
